Measured values: patent US20250171404A1, “PCNA INHIBITORS AND USES THEREOF” (CITY OF HOPE, priority 2022, published 2025)
Where two headings read alike, the source gives them in different places. One block for each molecule: values may come before it.

Assays:
SK-N-DZ = assay: Cell growth IC50, screening of AOH1160 analogs; type: cell-based; details: Homo sapiens
Description: (§1) FIG. 29. IC50 data for select compounds. The indicated cell lines were seeded at 10^4 cells per well in a 96 well plate. After allowing to attach to the plate overnight, cells were treated with various concentrations of the indicated compounds in triplicates for 72 hrs. The cell growth was measured by an SRB assay. The cell abundances under each treatment condition relative to the baseline were averaged and graphed ±S.D. The baseline is defined as the median value of the cell abundances under the treatment by the two lowest compound concentrations. The IC50 was calculated by the Prism program.

SK-N-BE(2)c = assay: Cell growth IC50, screening of AOH1160 analogs; type: cell-based; details: Homo sapiens
Description: as §1

SK-N-AS = assay: Cell growth IC50, screening of AOH1160 analogs; type: cell-based; details: Homo sapiens
Description: as §1

H1753 = assay: Cell growth IC50, screening of AOH1160 analogs; type: cell-based
Description: as §1

H358 = assay: Cell growth IC50, screening of AOH1160 analogs; type: cell-based; details: Homo sapiens, NCI-H358
Description: as §1

MDA-MB-468 = assay: Cell growth IC50, screening of AOH1160 analogs; type: cell-based; details: Homo sapiens, MDA-MB-468; read-out: IC50 values
Description: as §1

Hela = assay: Cell growth IC50, screening of AOH1160 analogs; type: cell-based; details: Homo sapiens
Description: as §1

A375 = assay: Cell growth IC50, screening of AOH1160 analogs; type: cell-based; details: Homo sapiens, A-375
Description: as §1

OVCAR8 = assay: Cell growth IC50, screening of AOH1160 analogs; type: cell-based; details: Homo sapiens, OVCAR-8; OVCAR8; read-out: IC50 values
Description: as §1

RKO = assay: Cell growth IC50, screening of AOH1160 analogs; type: cell-based; details: Homo sapiens, read-out: IC50 values
Description: as §1

HCT-116 = assay: Cell growth IC50, screening of AOH1160 analogs; type: cell-based; details: Homo sapiens, HCT-116; read-out: IC50 values
Description: as §1

A549 = assay: Cell growth IC50, screening of AOH1160 analogs; type: cell-based; details: Homo sapiens
Description: as §1

A673 = assay: Cell growth IC50, screening of AOH1160 analogs; type: cell-based; details: Homo sapiens
Description: as §1

[1] = system: SK-N-AS derived xenograft tumors; assay: Survival of mice bearing xenograft tumors, AOH1996 with CPT-11; type: in vivo, ES1^e/SCID mice; details: AOH1996 80 mg/kg oral 8 d; CPT-11 15 mg/kg i.p. 3 d; vs untreated
Description: FIGS. 4A-4H. Pharmacokinetics and anti-tumor growth activity of AOH1996 in vivo. FIG. 4A: After oral administration, the plasma concentrations of AOH1996 from three male and three female ES1^e/SCID mice at the indicated time points were averaged and graphed ±S.D. The inset contains PK parameters determined by a standard noncompartmental method. FIG. 4B: A similar PK study of AOH1996 was performed in dogs. FIGS. 4C-4E: Mice bearing the xenograft tumors of neuroblastoma (FIG. 4C: SK-N-BE(2)c), breast cancer (FIG. 4D: MDA-MB-468), and small-cell lung cancer (FIG. 4E: H82) were given vehicle only (black) or 40 mg/kg of AOH1996 (grey) twice daily immediately after the first measurement. Tumor sizes were measured by a dial caliper each week. Tumor volumes (0.4×L×W^2) were averaged and graphed ±S.E. (*, P<0.01). FIG. 4F: Animal body weight was monitored throughout the studies as an indicator of toxicity. […] FIG. 4G: The levels of phosphor-Chk1 (pChk1) and γH2A.X in SK-N-BE(2)c derived tumor samples were analyzed by IHC. […] The p values determined by the Log-rank (Mantel-Cox) test between combination treatment and each of the control groups are p=0.0003 (Combination vs. NoRx), p=0.005 (Combination vs. AOH1996 alone), and p=0.024 (Combination vs. CPT-11 alone). […]
In vivo tumor model. […] Tumor size and animal weight were measured weekly. […]

caPCNA = caPCNA (Homo sapiens, UniProt P12004); assay: Molecular probe binding in vitro
Sequence of caPCNA (P12004 whole entry): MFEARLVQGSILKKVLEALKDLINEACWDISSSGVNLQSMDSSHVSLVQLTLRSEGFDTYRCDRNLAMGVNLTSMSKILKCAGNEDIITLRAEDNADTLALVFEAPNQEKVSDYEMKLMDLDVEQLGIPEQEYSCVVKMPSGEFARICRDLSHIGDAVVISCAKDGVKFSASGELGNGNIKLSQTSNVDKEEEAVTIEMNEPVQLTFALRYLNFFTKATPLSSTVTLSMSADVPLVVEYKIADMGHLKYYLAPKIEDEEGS

IC50 (SK-N-DZ): > 10 µM
IC50 (SK-N-BE(2)c): > 10 µM
IC50 (SK-N-AS; read-out: IC50 values): > 10 µM
SMILES: O=C(CNC(=O)c1cccc2ccccc12)Nc1c(Cl)cccc1Oc1ccccc1 [AOH1160-2-C1]

IC50 (H1753; FIG. 26, H1752, read-out: IC50): 1.6 µM
IC50 (H1753; H1753, read-out: IC50 values): 1.6 µM
IC50 (SK-N-AS; FIG. 26, AK-N-AS, read-out: IC50): 1.5 µM
IC50 (SK-N-AS; read-out: IC50 values): 1.5 µM
IC50 (H358; FIG. 26, H358, read-out: IC50): 1.8 µM
IC50 (H358; read-out: IC50 values): 1.8 µM
IC50 (MDA-MB-468): 2.3 µM
SMILES: COc1cccc(Oc2ccccc2NC(=O)[C@H](C)NC(=O)c2cccc3ccccc23)c1 [AOH1996LA, (S)—N-(1-((2-(3-methoxyphenoxy)phenyl)amino)-1-oxopropan-2-yl)-1-naphthamide]

IC50 (Hela; HeLa, read-out: IC50 values): 0.37 µM
IC50 (A375): 0.17 µM
SMILES: COc1cccc(Sc2ccccc2NC(=O)CNC(=O)c2cccc3ccccc23)c1 [AOH1996S, N-(2-((2-((3-methoxyphenyl)thio)phenyl)amino)-2-oxoethyl)-1-naphthamide]

IC50 (OVCAR8): 1.6 µM
IC50 (HCT-116): 2.21 µM
SMILES: O=C(CNC(=O)c1cccc2ccccc12)Nc1ccccc1Sc1cccc(F)c1 [AOH1996S-3F, N-(2-((2-((3-fluorophenyl)thio)phenyl)amino)-2-oxoethyl)-1-naphthamide]
IC50 (RKO): 2.32 µM

IC50 (SK-N-AS; read-out: IC50 values): 0.37 µM
IC50 (A375): 0.35 µM
SMILES: O=C(CNC(=O)c1cccc2ccccc12)Nc1ccccc1Sc1ccc(F)cc1 [AOH1996S-4F, N-(2-((2-((4-fluorophenyl)thio)phenyl)amino)-2-oxoethyl)-1-naphthamide]

IC50 (A549; FIG. 27, read-out: IC50): 4.7 µM
IC50 (A549; read-out: IC50 values): 4.7 µM
IC50 (Hela; HeLa, read-out: IC50 values): 6.5 µM
IC50 (Hela; FIG. 27, Hela, read-out: IC50): 6.5 µM
SMILES: COc1cccc(Oc2ccccc2NC(=O)CNC(=O)c2c(C)cc(C)cc2C)c1 [AOH1996TMB, N-(2-((2-(3-methoxyphenoxy)phenyl)amino)-2-oxoethyl)-2,4,6-trimethylbenzamide]
IC50 (A673; FIG. 27, read-out: IC50): 5.5 µM
IC50 (A673; read-out: IC50 values): 5.5 µM

SMILES: CCc1c2c(nc3ccc(OC(=O)N4CCC(N5CCCCC5)CC4)cc13)-c1cc3c(c(=O)n1C2)COC(=O)[C@]3(O)CC [CPT-11, reference compound]
increase of median survival [1]: 34.6%

SMILES: N[C@@H](CCC(=O)O)C(=O)O [Glutamic acid]
binding to caPCNA as molecular probe (caPCNA): bound caPCNA tightly

binding to caPCNA as molecular probe (caPCNA): bound caPCNA tightly
SMILES: NCCCC[C@H](N)C(=O)O [Lysine]
